We go through 22 compounds from US20190388425A1, “SUBSTITUTED IMIDAZOPYRIDINPYRIMIDINES” (Bayer Pharma Aktiengesellschaft, priority 2017, published 2019).

A value given as a limit tells only on which side of the number the result lay.

The target in this experiment is T1, human full-length MKNK1 (Homo sapiens, UniProt Q9BUB5, T385D).
T1 construct: GST (N); purchased Carna Biosciences 02-145; host or cells: insect cells (baculovirus expression system)
The experiment can be described thus: MKNK1 kinase high ATP assay (TR-FRET). In kind it is biochemical. To be noted: TR-FRET, 2 mM ATP (high ATP), 15 min preincubation with enzyme, 30 min reaction at 22° C.; read-out: MKNK1 IC50. Put shortly: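 Full-length human MKNK1 (T385D) preincubated 15 min at 22 °C with compound in HEPES pH 7.5/MgCl2/DTT buffer; reaction with 2 mM ATP (final) and 0.06 μM biotinylated peptide (final), 30 min at 22 °C.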
In general terms: In TR-FRET formats the signal depends on donor and acceptor labels being close together.

T1 sequence (Q9BUB5 1-424 isoform Q9BUB5-2 T344D): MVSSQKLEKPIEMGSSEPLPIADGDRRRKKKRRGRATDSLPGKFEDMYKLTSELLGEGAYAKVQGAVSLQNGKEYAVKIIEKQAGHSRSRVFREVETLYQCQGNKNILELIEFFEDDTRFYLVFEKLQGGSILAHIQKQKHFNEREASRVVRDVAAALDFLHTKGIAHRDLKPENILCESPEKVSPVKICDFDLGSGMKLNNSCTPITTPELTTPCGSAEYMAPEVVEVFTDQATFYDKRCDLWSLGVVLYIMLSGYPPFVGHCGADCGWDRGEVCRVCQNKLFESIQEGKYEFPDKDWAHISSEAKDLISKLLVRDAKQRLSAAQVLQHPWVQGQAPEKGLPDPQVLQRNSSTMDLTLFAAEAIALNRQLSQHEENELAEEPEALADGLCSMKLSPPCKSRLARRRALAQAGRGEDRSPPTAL

The IC50 is the concentration that gives 50% inhibition. For the compound `Cc1cc(Nc2ncnc3sc4c(c23)CC[C@H](C(=O)N2C[C@H]3C[C@@H]2CO3)C4)c(=O)n2c1C(=O)NC21CCC(F)(F)CC1` [Example 58, 4,4-Difluoro-8′-methyl-6′-({(7S)-7-[(1R,4R)-2-oxa-5-azabicyclo[2.2.1]hept-5-ylcarbonyl]-5,6,7,8-tetrahydro[1]benzothieno[2,3-d]pyrimidin-4-yl}amino)-2′H-spiro[cyclohexane-1,3′-imidazo[1,5-a]pyridine]-1′,5′-dione], the IC50 was determined as 0.5 nM.

Consider `Cc1cc(Nc2ncnc3sc4c(c23)CC[C@H](C(=O)N(C)C)C4)c(=O)n2c1C(=O)NC21CCCCC1` [Example 2, (7S)—N, N-Dimethyl-4-[(8′-methyl-1′,5′-dioxo-1′,5′-dihydro-2′H-spiro[cyclohexane-1,3′-imidazo[1,5-a]pyridin]-6′-yl)amino]-5,6,7,8-tetrahydro[1]benzothieno[2,3-d]pyrimidine-7-carboxamide], for which the IC50 was 0.2 nM.

For the compound `O=C1NC2(CCC2)n2c1c(Cl)cc(Nc1ncnc3sc4c(c13)CC[C@H](C(=O)N1C[C@H]3C[C@@H]1CO3)C4)c2=O` [Example 118, 8′-chloro-6′-({(7S)-7-[(1R,4R)-2-oxa-5-azabicyclo[2.2.1]heptan-5-ylcarbonyl]-5,6,7,8-tetrahydro[1]benzothieno[2,3-d]pyrimidin-4-yl}amino)-2′H-spiro[cyclobutane-1,3′-imidazo[1,5-a]pyridine]-1′,5′-dione], the IC50 amounted to 0.4 nM.

`Cc1cc(Nc2ncnc3sc4c(c23)CC[C@H](C(=O)N(C)C)C4)c(=O)n2c1C(=O)NC21CCC1` [Example 20, (7S)—N,N-Dimethyl-4-[(8′-methyl-1′,5′-dioxo-1′,5′-dihydro-2′H-spiro[cyclobutane-1,3′-imidazo[1,5-a]pyridin]-6′-yl)amino]-5,6,7,8-tetrahydro[1]benzothieno[2,3-d]pyrimidine-7-carboxamide]: the IC50 stood at 0.6 nM.

As for `Cc1cc(Nc2ncnc3sc4c(c23)CC[C@H](C(=O)N2CCC2)C4)c(=O)n2c1C(=O)NC21CCC1` [Example 21, 6′-{[(7S)-7-(Azetidin-1-ylcarbonyl)-5,6,7,8-tetrahydro[1]benzothieno[2,3-d]pyrimidin-4-yl]amino}-8′-methyl-2′H-spiro[cyclobutane-1,3′-imidazo[1,5-a]pyridine]-1′,5′-dione], the IC50 was found to be 0.6 nM.

For the compound `Cc1cc(Nc2ncnc3sc4c(c23)CC[C@H](C(=O)N2CCN(C)[C@H](C)C2)C4)c(=O)n2c1C(=O)NC21CSC1` [Example 50, 6-{[(7S)-7-{[(3R)-3,4-dimethylpiperazin-1-yl]carbonyl}-5,6,7,8-tetrahydro[1]benzothieno[2,3-d]pyrimidin-4-yl]amino}-8-methyl-2H-spiro[imidazo[1,5-a]pyridine-3,3′-thietane]-1,5-dione], the IC50 came out at 0.3 nM.

For the compound `Cc1cc(Nc2ncnc3sc4c(c23)CC[C@H](C(=O)N2CCOC[C@H]2C)C4)c(=O)n2c1C(=O)NC21CCCCC1` [Example 18, 8′-methyl-6′-{[(7S)-7-{[(3R)-3-methylmorpholin-4-yl]carbonyl}-5,6,7,8-tetrahydro[1]benzothieno[2,3-d]pyrimidin-4-yl]amino}-2′H-spiro[cyclohexane-1,3′-imidazo[1,5-a]pyridine]-1′,5′-dione], the IC50 stood at 0.3 nM.

Turning to `Cc1cc(Nc2ncnc3sc4c(c23)CC[C@H](C(=O)O)C4)c(=O)n2c1C(=O)NC21CCC(F)(F)CC1` [Example 42, (7S)-4-[(4,4-Difluoro-8′-methyl-1′,5′-dioxo-1′,5′-dihydro-2′H-spiro[cyclohexane-1,3′-imidazo[1,5-a]pyridin]-6′-yl)amino]-5,6,7,8-tetrahydro[1]benzothieno[2,3-d]pyrimidine-7-carboxylic acid], the IC50 came out at 24.5 nM.

`C[C@@H]1CN(C(=O)[C@H]2CCc3c(sc4ncnc(Nc5cc(Cl)c6n(c5=O)C5(CCCCC5)NC6=O)c34)C2)CCN1C` [Example 80, 8′-Chloro-6′-{[(7S)-7-{[(3R)-3,4-dimethylpiperazin-1-yl]carbonyl}-5,6,7,8-tetrahydro[1]benzothieno[2,3-d]pyrimidin-4-yl]amino}-2′H-spiro[cyclohexane-1,3′-imidazo[1,5-a]pyridine]-1′,5′-dione]: the IC50 came to 0.2 nM.

Regarding `Cc1cc(Nc2ncnc3sc4c(c23)CC[C@H](C(=O)O)C4)c(=O)n2c1C(=O)NC21CCCC1` [Example 34, (7S)-4-[(8′-Methyl-1′,5′-dioxo-1′,5′-dihydro-2′H-spiro[cyclopentane-1,3′-imidazo[1,5-a]pyridin]-6′-yl)amino]-5,6,7,8-tetrahydro[1]benzothieno[2,3-d]pyrimidine-7-carboxylic acid], the IC50 turned out to be 4.7 nM.

Consider `Cc1cc(Nc2ncnc3sc4c(c23)CC[C@H](C(=O)N2CC(C#N)C2)C4)c(=O)n2c1C(=O)NC21CCC(F)(F)CC1` [Example 54, 1-({(7S)-4-[(4,4-Difluoro-8′-methyl-1′,5′-dioxo-1′,5′-dihydro-2′H-spiro[cyclohexane-1,3′-imidazo[1,5-a]pyridin]-6′-yl)amino]-5,6,7,8-tetrahydro[1]benzothieno[2,3-d]pyrimidin-7-yl}carbonyl)azetidine-3-carbonitrile], for which the half-inhibitory concentration (IC50) came to 4.4 nM.

`Cc1cc(Nc2ncnc3sc4c(c23)CC[C@H](C(=O)N2CC(N(C)C)C2)C4)c(=O)n2c1C(=O)NC21CCCC1` [Example 40, 6′-{[(7S)-7-{[3-(Dimethylamino)azetidin-1-yl]carbonyl}-5,6,7,8-tetrahydro[1]benzothieno[2,3-d]pyrimidin-4-yl]amino}-8′-methyl-2′H-spiro[cyclopentane-1,3′-imidazo[1,5-a]pyridine]-1′,5′-dione]: the half-maximal inhibitory concentration (IC50) was 0.3 nM.

Take `Cc1cc(Nc2ncnc3sc4c(c23)CC[C@H](C(=O)N2CCC2)C4)c(=O)n2c1C(=O)NC21CCCCC1` [Example 3, 6′-{[(7S)-7-(Azetidin-1-ylcarbonyl)-5,6,7,8-tetrahydro[1]benzothieno[2,3-d]pyrimidin-4-yl]amino}-8′-methyl-2′H-spiro[cyclohexane-1,3′-imidazo[1,5-a]pyridine]-1′,5′-dione]: the IC50 was found to be 0.3 nM.

As for `NC(=O)[C@H]1CCc2c(sc3ncnc(Nc4cc(Cl)c5n(c4=O)C4(CCC4)NC5=O)c23)C1` [Example 94, (7S)-4-[(8′-Chloro-1′,5′-dioxo-1′,5′-dihydro-2′H-spiro[cyclobutane-1,3′-imidazo[1,5-a]pyridin]-6′-yl)amino]-5,6,7,8-tetrahydro[1]benzothieno[2,3-d]pyrimidine-7-carboxamide], the IC50 worked out at 0.2 nM.

For the compound `CNC(=O)[C@H]1CCc2c(sc3ncnc(Nc4cc(C)c5n(c4=O)C4(CCCCC4)NC5=O)c23)C1` [Example 4, (7S)—N-Methyl-4-[(8′-methyl-1′,5′-dioxo-1′,5′-dihydro-2′H-spiro[cyclohexane-1,3′-imidazo[1,5-a]pyridin]-6′-yl)amino]-5,6,7,8-tetrahydro[1]benzothieno[2,3-d]pyrimidine-7-carboxamide], the IC50 was 0.4 nM.

Turning to `Cc1cc(Nc2ncnc3sc4c(c23)CC[C@H](C(=O)N2CC[C@H](N(C)C)C2)C4)c(=O)n2c1C(=O)NC21CS(=O)(=O)C1` [Example 70, 6-{[(7S)-7-{[(3S)-3-(Dimethylamino)pyrrolidin-1-yl]carbonyl}-5,6,7,8-tetrahydro[1]benzothieno[2,3-d]pyrimidin-4-yl]amino}-8-methyl-2H-spiro[imidazo[1,5-a]pyridine-3,3′-thietane]-1,5-dione 1′,1′-dioxide], the IC50 worked out at 0.8 nM.

As for `CN(C)[C@H]1CCN(C(=O)[C@H]2CCc3c(sc4ncnc(Nc5cc(Cl)c6n(c5=O)C5(CCC5)NC6=O)c34)C2)C1` [Example 98, 8′-Chloro-6′-({(7S)-7-[(3S)-3-(dimethylamino)pyrrolidine-1-carbonyl]-5,6,7,8-tetrahydro[1]benzothieno[2,3-d]pyrimidin-4-yl}amino)-2′H-spiro[cyclobutane-1,3′-imidazo[1,5-a]pyridine]-1′,5′-dione], the IC50 was under 0.1 nM.

As for `Cc1cc(Nc2ncnc3sc4c(c23)CC[C@H](C(=O)N2CCN(C)[C@H](C)C2)C4)c(=O)n2c1C(=O)NC21CCCC1` [Example 35, 6′-{[(7S)-7-{[(3R)-3,4-Dimethylpiperazin-1-yl]carbonyl}-5,6,7,8-tetrahydro[1]benzothieno[2,3-d]pyrimidin-4-yl]amino}-8′-methyl-2′H-spiro[cyclopentane-1,3′-imidazo[1,5-a]pyridine]-1′,5′-dione], the IC50 came to 0.4 nM.

Consider `NC(=O)[C@H]1CCc2c(sc3ncnc(Nc4cc(Cl)c5n(c4=O)C4(CCCC4)NC5=O)c23)C1` [Example 85, (7S)-4-[(8′-Chloro-1′,5′-dioxo-1′,5′-dihydro-2′H-spiro[cyclopentane-1,3′-imidazo[1,5-a]pyridin]-6′-yl)amino]-5,6,7,8-tetrahydro[1]benzothieno[2,3-d]pyrimidine-7-carboxamide], for which the IC50 is 0.2 nM.

In the case of `C[C@@H]1COCCN1C(=O)[C@H]1CCc2c(sc3ncnc(Nc4cc(Cl)c5n(c4=O)C4(CCC4)NC5=O)c23)C1` [Example 99, 8′-Chloro-6′-({(7S)-7-[(3R)-3-methylmorpholine-4-carbonyl]-5,6,7,8-tetrahydro[1]benzothieno[2,3-d]pyrimidin-4-yl}amino)-2′H-spiro[cyclobutane-1,3′-imidazo[1,5-a]pyridine]-1′,5′-dione], the IC50 came out at 0.1 nM.

On to `Cc1cc(Nc2ncnc3sc4c(c23)CC[C@H](C(=O)N2CC[C@H](N(C)C)C2)C4)c(=O)n2c1C(=O)NC2(C)C` [Example 31, 6-{[(7S)-7-{[(3S)-3-(Dimethylamino)pyrrolidin-1-yl]carbonyl}-5,6,7,8-tetrahydro[1]benzothieno[2,3-d]pyrimidin-4-yl]amino}-3,3,8-trimethyl-2,3-dihydroimidazo[1,5-a]pyridine-1,5-dione], for which the IC50 turned out to be 0.9 nM.

With `Cc1cc(Nc2ncnc3sc4c(c23)CCCC4)c(=O)n2c1C(=O)NC21CCCCC1` [Example 43, 8′-Methyl-6′-(5,6,7,8-tetrahydro[1]benzothieno[2,3-d]pyrimidin-4-ylamino)-2′H-spiro[cyclohexane-1,3′-imidazo[1,5-a]pyridine]-1′,5′-dione], the IC50 is 9.9 nM.
